≈ marks a conversion by molar mass, not a printed value. Where two headings read alike, the source gives them in different places. Where only a bound is given, the exact number is not on record here.

This test concerns M. tuberculosis H37Rv (ATCC 27294). Description: Microplate Alamar Blue assay (MABA), MIC against replicating M. tuberculosis H37Rv. The test is classed as cell-based. As to conditions: Mycobacterium tuberculosis, 168 h, read-out: M. tuberculosis MIC.
[1] abbreviates: H37Rv, MABA, 7H12 media, 7 days at 37° C., MIC = lowest concentration reducing fluorescence by 90% relative to controls.

As for `COc1cc(C(O)(CCN(C)C)C(c2cc3cc(Br)ccc3nc2OC)c2cccc(OC)c2F)cc(SC)n1` (stereo not shown) [Example 48, 1-(6-Bromo-2-methoxyquinolin-3-yl)-4-(dimethylamino)-1-(2-fluoro-3-methoxyphenyl)-2-(2-methoxy-6-(methylthio)pyridin-4-yl)butan-2-ol], the MIC (in general, the lowest concentration found to suppress growth) under setting [1] was less than 0.02 µg/mL.
Same read-out and setting: then `CCOc1cc(C(O)(CCN(C)C)C(c2cccc(C)c2)c2cc3cc(Cl)ccc3nc2OC)cc(OCC)n1` (stereo not shown) [Example 32, 1-(6-Chloro-2-methoxyquinolin-3-yl)-2-(2,6-diethoxypyridin-4-yl)-4-(dimethylamino)-1-(m-tolyl)butan-2-ol], with 0.02 µg/mL (≈ 0.0355 µM); and `COc1cc(C(O)(CCN(C)C)C(c2cc3cc(Br)ccc3nc2OC)c2cccc3c2OCCO3)cc(OC(F)F)n1` (stereo not shown) [Example 58, 1-(6-Bromo-2-methoxyquinolin-3-yl)-2-(2-(difluoromethoxy)-6-methoxypyridin-4-yl)-1-(2,3-dihydrobenzo[b][1,4]dioxin-5-yl)-4-(dimethylamino)butan-2-ol], with less than 0.01 µg/mL; and `COc1cc(C(O)(CCN(C)C)C(c2cc3cc(C#N)ccc3nc2OC)c2cccc(OC)c2F)cc(SC)n1` (stereo not shown) [Example 87, 3-(4-(Dimethylamino)-1-(2-fluoro-3-methoxyphenyl)-2-hydroxy-2-(2-methoxy-6-(methylthio)pyridin-4-yl)butyl)-2-methoxyquinoline-6-carbonitrile], with 0.02 µg/mL (≈ 0.0347 µM).
As to `CCCOc1cc(C(O)(CCN(C)C)C(c2cc3cc(Br)ccc3nc2OC)c2ccnc(OC)c2OC)cc(OC)n1` (stereo not shown) [Example 28, 1-(6-Bromo-2-methoxyquinolin-3-yl)-1-(2,3-dimethoxypyridin-4-yl)-4-(dimethylamino)-2-(2-methoxy-6-propoxypyridin-4-yl)butan-2-ol], under setting [1], the MIC was determined as 0.01 µg/mL (≈ 0.0153 µM).
For the compound `COc1cccc(C(c2cc3cc(Br)ccc3nc2OC)C(O)(CCN(C)C)c2cc(SC)nc(SC)c2)c1F` (stereo not shown) [Example 45, 2-(2,6-Bis(methylthio)pyridin-4-yl)-1-(6-bromo-2-methoxyquinolin-3-yl)-4-(dimethylamino)-1-(2-fluoro-3-methoxyphenyl)butan-2-ol], under setting [1], the MIC is less than 0.02 µg/mL.
Turning to `COc1cc(C(O)(CCN(C)C)C(c2ccc(C)s2)c2cc3cc(C#N)ccc3nc2OC)cc(OC)n1` (stereo not shown) [Example 75, 3-(2-(2,6-Dimethoxypyridin-4-yl)-4-(dimethylamino)-2-hydroxy-1-(5-methylthiophen-2-yl)butyl)-2-methoxyquinoline-6-carbonitrile], under setting [1], the minimal inhibitory concentration (MIC) turned out to be 0.19 µg/mL (≈ 0.357 µM).
Take `COc1cc(C(O)(CCN(C)C)C(c2cc3cc(Br)ccc3nc2OC)c2cccc(C)c2F)cc(OC(F)F)n1` (stereo not shown) [Example 54, 1-(6-Bromo-2-methoxyquinolin-3-yl)-2-(2-(difluoromethoxy)-6-methoxypyridin-4-yl)-4-(dimethylamino)-1-(2-fluoro-3-methylphenyl)butan-2-ol]: under setting [1], the MIC stood at 0.01 µg/mL (≈ 0.0158 µM).
As for `CCSc1cc(C(O)(CCN(C)C)C(c2cc3cc(Br)ccc3nc2OC)c2cccc(OC)c2F)cc(SCC)n1` (stereo not shown) [Example 44, 2-(2,6-Bis(ethylthio)pyridin-4-yl)-1-(6-bromo-2-methoxyquinolin-3-yl)-4-(dimethylamino)-1-(2-fluoro-3-methoxyphenyl)butan-2-ol], under setting [1], the MIC is less than 0.02 µg/mL.
For `COc1cc(C(O)(CCN(C)C)C(c2cccc(F)c2)c2cc3cc(Br)ccc3nc2OC)cc(OC)n1` (stereo not shown) [Example 39, 1-(6-Bromo-2-methoxyquinolin-3-yl)-2-(2,6-dimethoxypyridin-4-yl)-4-(dimethylamino)-1-(3-fluorophenyl)butan-2-ol], the minimal inhibitory concentration (MIC) under setting [1] was less than 0.02 µg/mL.
In the case of `COc1cc(C(O)(CCN(C)C)C(c2cc3cc(C#N)ccc3nc2OC)c2cccc3c2OCCO3)cc(OC(F)F)n1` (stereo not shown) [Example 91, 3-(2-(2-(Difluoromethoxy)-6-methoxypyridin-4-yl)-1-(2,3-dihydrobenzo[b][1,4]dioxin-5-yl)-4-(dimethylamino)-2-hydroxybutyl)-2-methoxyquinoline-6-carbonitrile], the MIC under setting [1] came out at 0.02 µg/mL (≈ 0.033 µM).
Regarding `COc1cc(C(O)(CCN(C)C)C(c2cccc(C)c2)c2cc3cc(Br)ccc3nc2OC)cc(OC(C)C)n1` (stereo not shown) [Example 25, 1-(6-Bromo-2-methoxyquinolin-3-yl)-4-(dimethylamino)-2-(2-isopropoxy-6-methoxypyridin-4-yl)-1-(m-tolyl)butan-2-ol], the MIC under setting [1] came to 0.01 µg/mL (≈ 0.0164 µM).
For the compound `COc1cc(C(O)(CCN(C)C)C(c2cc3cc(C#N)ccc3nc2OC)c2cccc(C)c2F)cc(OC)n1` (stereo not shown) [Example 86, 3-(2-(2,6-Dimethoxypyridin-4-yl)-4-(dimethylamino)-1-(2-fluoro-3-methylphenyl)-2-hydroxybutyl)-2-methoxyquinoline-6-carbonitrile], the MIC under setting [1] is less than 0.02 µg/mL.
`CCOc1cc(C(O)(CCN(C)C)C(c2cc3cc(Br)ccc3nc2OC)c2ccnc(OC)c2OC)cc(OC(C)C)n1` (stereo not shown) [Example 23, 1-(6-Bromo-2-methoxyquinolin-3-yl)-1-(2,3-dimethoxypyridin-4-yl)-4-(dimethylamino)-2-(2-ethoxy-6-isopropoxypyridin-4-yl)butan-2-ol]: under setting [1], the minimum inhibitory concentration (MIC) is less than 0.02 µg/mL.
Consider `COc1cc(C(O)(CCN(C)C)C(c2cc3cc(C#N)ccc3nc2OC)c2ccnc(OC)c2OC)cc(OC(F)F)n1` (stereo not shown) [Example 83, 3-(2-(2-(Difluoromethoxy)-6-methoxypyridin-4-yl)-1-(2,3-dimethoxypyridin-4-yl)-4-(dimethylamino)-2-hydroxybutyl)-2-methoxyquinoline-6-carbonitrile], for which the MIC under setting [1] is less than 0.02 µg/mL.
Regarding `COc1cc(C(O)(CCN(C)C)C(c2cc3cc(Br)ccc3nc2OC)c2ccnc(OC)c2OC)cc(N(C)C)n1` (stereo not shown) [Example 68, 1-(6-Bromo-2-methoxyquinolin-3-yl)-1-(2,3-dimethoxypyridin-4-yl)-4-(dimethylamino)-2-(2-(dimethylamino)-6-methoxypyridin-4-yl)butan-2-ol], the MIC under setting [1] was 0.01 µg/mL (≈ 0.0156 µM).
Same read-out and setting: with `COc1cc(C(O)(CCN(C)C)C(c2cc3cc(Br)ccc3nc2OC)c2ccnc(OC)c2OC)cc(OC(C)C)n1` (stereo not shown) [Example 18, 1-(6-Bromo-2-methoxyquinolin-3-yl)-1-(2,3-dimethoxypyridin-4-yl)-4-(dimethylamino)-2-(2-isopropoxy-6-methoxypyridin-4-yl)butan-2-ol] the figure was less than 0.01 µg/mL; with `COc1cc(C(O)(CCN(C)C)C(c2cc3cc(Br)ccc3nc2OC)c2sc(OC)nc2Cl)cc(OC)n1` (stereo not shown) [Example 71, 1-(6-Bromo-2-methoxyquinolin-3-yl)-1-(4-chloro-2-methoxythiazol-5-yl)-2-(2,6-dimethoxypyridin-4-yl)-4-(dimethylamino)butan-2-ol], 0.03 µg/mL (≈ 0.047 µM); with `COc1cc(C(c2cc3cc(C#N)ccc3nc2OC)C(O)(CCN(C)C)c2cccc3ccoc23)cc(OC(C)C)n1` (stereo not shown) [Example 77, 3-(2-(Benzofuran-7-yl)-4-(dimethylamino)-2-hydroxy-1-(2-isopropoxy-6-methoxypyridin-4-yl)butyl)-2-methoxyquinoline-6-carbonitrile], less than 0.02 µg/mL.
For the compound `CNCCC(O)(c1cc(OC)nc(OC)c1)C(c1cc2cc(C#N)ccc2nc1OC)c1cccc2c1OCCO2` (stereo not shown) [Example 93, 3-(1-(2,3-Dihydrobenzo[b][1,4]dioxin-5-yl)-2-(2,6-dimethoxypyridin-4-yl)-2-hydroxy-4-(methylamino)butyl)-2-methoxyquinoline-6-carbonitrile], under setting [1], the MIC worked out at 0.01 µg/mL (≈ 0.018 µM).
In the case of `COc1nc2ccc(Br)cc2cc1C(c1ccnc(OC)c1OC)C(O)(CCN(C)C)c1cc2ccccc2o1` (stereo not shown) [Example 7, 2-(Benzofuran-2-yl)-1-(6-bromo-2-methoxyquinolin-3-yl)-1-(2,3-dimethoxypyridin-4-yl)-4-(dimethylamino)butan-2-ol], the MIC was determined as 0.03 µg/mL (≈ 0.0495 µM).
Regarding `CCOc1cc(C(O)(CCN(C)C)C(c2cc3cc(Br)ccc3nc2OC)c2cccc(OC)c2F)cc(OC)n1` (stereo not shown) [Example 17, 1-(6-Bromo-2-methoxyquinolin-3-yl)-4-(dimethylamino)-2-(2-ethoxy-6-methoxypyridin-4-yl)-1-(2-fluoro-3-methoxyphenyl)butan-2-ol], the MIC under setting [1] is less than 0.01 µg/mL.
On to `COc1nc2ccc(C#N)cc2cc1C(c1cccc(F)c1)C(O)(CCN(C)C)c1cc2ccccc2o1` (stereo not shown) [Example 73, 3-(2-(Benzofuran-2-yl)-4-(dimethylamino)-1-(3-fluorophenyl)-2-hydroxybutyl)-2-methoxyquinoline-6-carbonitrile], for which the MIC under setting [1] was 0.08 µg/mL (≈ 0.157 µM).
On to `COc1cccc(C(c2cc3cc(Br)ccc3nc2OC)C(O)(CCN(C)C)c2cc(C)nc(C)c2)c1OC` (stereo not shown) [Example 37, 1-(6-Bromo-2-methoxyquinolin-3-yl)-1-(2,3-dimethoxyphenyl)-4-(dimethylamino)-2-(2,6-dimethylpyridin-4-yl)butan-2-ol], for which the MIC under setting [1] was 0.08 µg/mL (≈ 0.135 µM).
For the compound `COc1cc(C(c2cc3cc(Br)ccc3nc2OC)C(O)(CCN(C)C)c2cccc3ccoc23)cc(OC(C)C)n1` (stereo not shown) [Example 21, 2-(Benzofuran-7-yl)-1-(6-bromo-2-methoxyquinolin-3-yl)-4-(dimethylamino)-1-(2-isopropoxy-6-methoxypyridin-4-yl)butan-2-ol], under setting [1], the MIC was less than 0.02 µg/mL.
As to `COc1nc2ccc(Br)cc2cc1C(c1cccc2c1OCCO2)C(O)(CCN(C)C)c1cc(SC)nc(SC)c1` (stereo not shown) [Example 56, 2-(2,6-Bis(methylthio)pyridin-4-yl)-1-(6-bromo-2-methoxyquinolin-3-yl)-1-(2,3-dihydrobenzo[b][1,4]dioxin-5-yl)-4-(dimethylamino)butan-2-ol], the MIC under setting [1] worked out at 0.01 µg/mL (≈ 0.0152 µM).
As for `COc1nc2ccc(Br)cc2cc1C(c1ccnc(OC)c1OC)C(O)(CCN(C)C)c1cc(SC)nc(SC)c1` (stereo not shown) [Example 46, 2-(2,6-Bis(methylthio)pyridin-4-yl)-1-(6-bromo-2-methoxyquinolin-3-yl)-1-(2,3-dimethoxypyridin-4-yl)-4-(dimethylamino)butan-2-ol], the minimum inhibitory concentration (MIC) under setting [1] was less than 0.02 µg/mL.
`COc1cc(C(O)(CCN(C)C)C(c2cc3cc(Br)ccc3nc2OC)c2ccnc(OC)c2OC)cc(OC(F)F)n1` (stereo not shown) [Example 51, 1-(6-Bromo-2-methoxyquinolin-3-yl)-2-(2-(difluoromethoxy)-6-methoxypyridin-4-yl)-1-(2,3-dimethoxypyridin-4-yl)-4-(dimethylamino)butan-2-ol]: the MIC under setting [1] is less than 0.004 µg/mL.

The values above are taken from patent publication US10981891B2, “Antibacterial compounds and uses thereof” (priority 2016, dated 2021).
